What was measured:
[1] = system: EGFR and downstream cascade phosphorylation in A431 cells; assay: Western blot analysis in A431 cells; format: cell-based; conditions: 1 h inhibitor then EGF stimulation
Method: and incubated at 37 °C and 5% CO2. On day 2 cells were starved over night with media containing 0.5% FBS to be incubated on day 3 for 1 h with EGFR inhibitors following an additional 30 min of EGF stimulation at 50 ng/mL. The media was discarded and cells were washed once with DPBS
1x. Using 100 μL per well of lysis buffer, cells were then scraped off and lysed while rotating (Stuart Scientific, Staffordshire, UK) for 1 h at 4 °C. […] Supernatant was transferred into new tube and protein concentrations were determined with the Bio-Rad Protein Assay (Bio-Rad Laboratories, Hercules, CA). […]
captured and quantified using a FUJI LAS3000 system with Science Lab 2001 ImageGauge 4.0 software (Fujifilm Medial Systems, Stamford CT, USA). […]
glycerol, 1 mM TCEP, pH 8) on ice for 1 h. We analyzed the aliquots by ESI-MS using an Thermo Fisher Scientific Dionex UltiMate 3000 HPLC system connected to a Thermo Fisher Scientific Velos Pro (2d ion trap). Therefore, 5 μL of sample was injected and separated using a Vydac 214TP C4 5 μm column (150 mm x 2.1 mm) starting at 20% of solvent B for 5 minutes followed by a gradient up to 90% of solvent B over 14 min with a flow rate of 210 μL/min with 0.1% TFA in water as solvent A and 0.1% TFA in MeCN as solvent B. A mass range of 700 to 2000 m/z was scanned and raw data was deconvoluted and analyzed with MagTran software (Z.Q. Zhang, A.G. […]

[2] = target: 100 kinases; assay: Kinase selectivity profiling with 100 kinases (SelectScreen); format: biochemical; conditions: screening concentration 1 μM
Method: (§1) Kinase profiling of compound 17a at a concentration of 1 µM generated with the SelectScreen® Profiling Service from Life Technologies.
(§2) Figure S2. Kinase profiling of compound 17a, Illustration as waterfall plot. 9 Kinases harboring a Cysteine isostructural to Cys797 in EGFR are highlighted
(§3) Kinase % inhibition Kinase % inhibition […]
(§4) aValues are the mean ± SD of one measurement in duplicates; bKinases harboring a Cysteine isostructural to Cys797 […]
(§5) (1 picture or pasted object on this page, not shown here)

[3] = target: ABL1-Y253F (Homo sapiens, UniProt P00519, Y253F); assay: SelectScreen kinase profiling, ABL1-Y253F; format: biochemical; conditions: mean ± SD of one measurement in duplicates
Method: as §1, §2, §3, §4, §5

kinases with inhibitory activity of ≥70% [2]: 21 kinases and 8 mutant variants
inhibition at 1 µM [3]: 94%
Compound: C=CC(=O)Nc1cccc(-c2c(-c3ccc(CN4CCN(C)CC4)cc3)[nH]c3ncnc(OC)c23)c1 [Compound 17a]
concentration at which phosphorylation of EGFR and downstream proteins was reduced [1]: about 1 μM
